# Measurements published in US7498304B2, “Angiogenesis-modulating compositions and uses” (Curis, Inc., priority 2002, dated 2009).
# Key:
# [1] = tested on: normal human fibroblasts (CCD37); test: normal human fibroblasts (CCD37), competitive RT-PCR and VEGF165 ELISA; format: cell-based
# Description: To determine if hedgehog can directly induce fibroblasts to produce VEGF or other angiogenic factors, we treated normal human fibroblasts (CCD37) with Myr-Shh and the ability of fibroblasts to respond was evaluated by competitive RT-PCR for ptc 1 and several angiogenic growth factors. Total RNA was prepared from cells treated as described above using Trizol (Life Technologies, Rockville, Md.). Four micrograms of total RNA was used to prepare cDNA using the SuperScriptTM preamplification system (Cat. No. 18089-011, Life Technologies, Rockville, Md.). The PCR reaction using buffer reagents from the SuperScriptTM preamplification system (Life Technologies, Rockville, Md.) was quantitated with […] competitive primers (Ambion). Primers for the amplification of Ptc 1 were [NT] ID NO: 38) and [NT] ID NO: 39) which are based on ptc1 cDNA sequence (GenBank Accession Number U46155). All amplification for Ptc1 were done with 25 cycles of 94° C. for 30 sec; 55° C. for 1 min; 72° C. for 1 min. The cDNA from the same cells was also used as a template for VEGF, bFGF, Angiopoietin 1, and Angiopoietin II amplification. The following primer pairs and PCR cycles were used: […] [NT] ID NO: 40) and [NT] ID NO: 41) which are based on the human VEGF cDNA sequence (GenBank Accession Number E15157). VEGF product was amplified with 30 cycles of 94° C. for 30 sec; 62° C. for 1 min; 72° C. for 1 min; bFGF: [NT] ID NO: 42) and [NT] ID NO: 43) which is based on the human bFGF cDNA sequence (GenBank Accession Number M27968). bFGF product was amplified with 25 cycles of 94° C. for 30 sec; 62° C. for 1 min; 72° C. for 1 min; Angiopoietin I [NT] ID NO: 44) and [NT] ID NO: 45) which is based on human Angiopoietin I cDNA sequence (GenBank Accession Number U83508). Angiopoietin I product was amplified with 25 cycles of 94° C. for 30 sec; 64° C. for 90 sec; Angiopoietin II: [NT] ID NO:46) and [NT] ID NO: 47) which are based on human Angiopoietin II cDNA sequence (GenBank Accesion Number AB009865). Angiopoietin II product was amplified with 32 cycles of 94° C. for 30 sec; 64° C. for 90 sec. As internal control for sample preparation, gel loading, and random variations in RT-PCR, 18S rRNA primers and 18S rRNA competimers (Ambion, Austin, Tex.), used to modify 18S cDNA amplification efficiency, were included in each PCR reaction with target gene-specific primers. The linear range of amplification and optimal 18S primer/Competimer ratio was determined for each target gene following the manufacturer's recommendations (Ambion, Austin, Tex.). […] VEGF 121, 165, and 189 upregulation began at 12 hours and was maximal after 48 hours of incubation of the cells with Shh. […] Cells were stimulated with recombinant human myristolated Shh protein as described above. At harvest, the cell conditioned media was collected, centrifuged to remove cell debris (15 minutes at 1500×g) and production of VEGF165 protein was evaluated by using an ELISA kit (Quantikine human VEGF, R&D Systems, Minneapolis, Minn.).
# mouse cornea = test: mouse corneal pocket model of angiogenesis; format: in vivo
# Description: To confirm the angiogenic activity of hedgehog in another well accepted model of angiogenesis, we tested the ability of hedgehog protein to induce neovascularization in the mouse corneal model pocket model of angiogenesis.
# Animals were anesthetized by pentobarbital intraperitoneal injection (160 mg/kg). Corneal pockets were created in the eyes of each mouse and a 0.34×0.34 mm sucrose albumin sulfate (Bukh Meditec, Vaerlose, DK) pellet coated with hydron polymer type NCC (Interferon Sciences, New Brunswick, N.J.) containing 1 of the agents indicated below was implanted into the corneal pocket. […] mice were divided into 5 groups: control buffer alone; VEGF 300 ng/pellet; Myr-Shh vehicle alone; Myr-Shh 1.5 microg/pellet […]; Myr-Shh+VEGF (1.5 microg/pellet +300 ng/pellet, respectively). Pellets were positioned 1.0 mm from the corneal limbus, and erythromycin ophthalmic ointment (E. Fourera) was applied to each operated eye. The corneas of all mice were routinely examined by slit-lamp biomicroscopy on postoperative day 6 after pellet implantation.
# On the same day vessel length and corneal circumferential neovascularity (in degrees) were measured. After completing these measurements, C57BL/6J mice received an intravenous injection of […] of BS-1 lectin FITC-conjugated (Vector Laboratories, Burlingame, Calif.). Thirty minutes later, the animals were sacrificed. The eyes were enucleated and fixed in 1% paraformaldehyde solution. After fixation, the corneas were placed on glass slides and examined by fluorescence microscopy.
# To determine the mechanism by which Shh induces angiogenesis both Shh and VEGF-stimulated corneas (see Example 3) were excised and X-gal stained as described in Example 1 after fixation of the whole eye for 1 hour in 1% paraformaldehyde followed by enucleation and fixation of the corneal hemisphere in 1% paraformaldehyde for 30 minutes. […] Endothelial cell immunostaining was done with a rat monoclonal antibody against mouse CD-31 (Pharmigen, San Diego, Calif.) followed by a biotinylated goat anti-rat immunoglobulin secondary antibody. Smooth muscle cells and pericytes were identified with a mouse monoclonal antibody against SM a-actin conjugated with alkaline-phosphatase (Sigma, St. Louis, Mo.) and fibroblasts were identified using an anti-vimentin antibody (Sigma, St. Louis, Mo.).
# We then immunostained the Shh-induced corneas with a rabbit polyclonal anti-VEGF antibody (Santa Cruz Biotechnology, Santa Cruz, Calif.) with a biotinylated goat anti-rabbit immunoglobulin as secondary antibody.
# [2] = tested on: vascular smooth muscle cells (PAC 1), normal human lung fibroblasts, normal prostate stromal cells; test: ptc 1 RT-PCR in smooth muscle cells, lung fibroblasts and prostate stromal cells; format: cell-based; settings: 1 ug/ml for 2 days, vs vehicle
# Description: Eighty five percent confluent monolayers of vascular smooth muscle cells (PAC 1) were induced for 2 days with 1 ug/ml of myrShh or an equivalent volume of vehicle in normal media (M 199 complete media with 10% fetal bovine serum). For comparison, primary normal human lung fibroblasts and normal prostate stromal cells were grown in complete FBM and similarly stimulated (Clonetics/Bio-Whittaker, Walkersville, Md.). The cells were harvested and RNA from the cells was prepared and analysed by RT-PCR as above. […] In addition, hedgehog protein induced DNA synthesis in quiescent vascular SMCs and human fibroblasts. PAC-1 (Rothman et al., 1992), WKY (Lemire et al., 1994), primary pulmonary artery SMCs or aortic SMCs (Clonetics/Bio-Whittaker, Walkersville, Md.) were plated (5×10^3/well) in 96 well plates and allowed to adhere for 2-3 hours in 0.18 ml of complete media (M 199 with 10% fetal bovine serum for PAC 1 cells, DMEM with 10% fetal bovine serum for WKY cells or smGM-2 for primary human pulmonary artery or aortic SMCs). The cells were then starved for 18-24 hours in complete media with 0.5% fetal bovine serum. […] 3H-thymidine uptake into cells was determined by scintillation counting using a 1205 Betaplate counter (Wallac, Gaithersburg, Md.).
# [3] = tested on: human umbilical vein and microvascular endothelial cells; test: response of endothelial cells to Hh; format: cell-based
# [4] = tested on: Shh signaling pathway in MEFs homozygous for ptc-lacZ (cell line 23-1); test: β-galactosidase activity in ptc-lacZ homozygous mouse embryonic fibroblasts; format: cell-based; settings: normalized to whole protein content
# Description: These studies involve the use of mouse embryonic fibroblasts (MEFs) that were generated by trypsin digestion of E8.5 embryos from patched (ptc) ±matings. […] Thus, in these ptc−/− embryos, the Shh signaling pathway is activated in many tissues, and the lacZ gene product β-galactosidase is expressed in all of those tissues as a report of pathway activation.
# The Shh signaling pathway can be activated in these fibroblasts in cell culture, and that the level of β-galactosidase activity does reflect the degree of pathway activation. The MEF line 23-4 is heterozygous for ptc-lacZ, and thus contains one functional ptc allele capable of maintaining a repressed state of the pathway, but will express lacZ when the pathway is activated by addition of Shh protein.
# [5] = pellet: Myr-Shh 1.5 microg or VEGF 300 ng
compound,measurement,setting,value
Myr-Shh: recombinant human myristolated Shh protein (myristylated Sonic hedgehog),"start of VEGF 121, 165 and 189 upregulation",[1],12 h
same,"time of maximal VEGF 121, 165 and 189 upregulation",[1],48 h
same,time of maximal increase of Ang-1 and Ang-2,[1],36 h
same,"VEGF mRNA isoforms (VEGF121, 165, 189)",[1]; RT-PCR,strongly upregulated
same,bFGF mRNA,[1]; any time-points,No bFGF upregulation was detectable
same,"VEGF production (VEGF165 protein in cell media, ELISA)",[1]; at 72 hours,significant upregulation
same,Ang-1 and Ang-2 mRNA,[1]; quantitative RT-PCR,upregulation of both genes
same,Ptc1 gene expression,[1]; time course,upregulating the Ptc1 gene
same,X-gal staining (Ptc 1 expression) of corneas,mouse cornea; Ptc1-lacZ corneas,strong X-gal staining
same,VEGF immunostaining of corneas,mouse cornea; anti-VEGF antibody,VEGF protein is in the fibroblasts and matrix immediately adjacent to the neovascular area
same,density of vessels,mouse cornea; compared with VEGF,slightly lower
same,maximum vessel lengths,mouse cornea; [5],1020+200 um
same,vessel diameters (mean),mouse cornea; [5],33±17 um
same,neovascular growth,"mouse cornea; pellet: Myr-Shh 1.5 microg or VEGF 300 ng, day 6",significant neovascular growth
same,"vessel length, circumferential neovascularity and diameter of the lumens",mouse cornea; summary,statistically significant increase
same,ptc 1 expression,[2],increased ptc 1 expression
same,response to Hh,[3],Neither human umbilical vein and microvascular endothelial cells respond
C[C@H]1CC[C@]2(NC1)O[C@H]1C[C@H]3[C@@H]4CC[C@H]5C[C@@H](O)CC[C@]5(C)[C@H]4CC[C@]3(C)[C@H]1[C@@H]2C [tomatidine],β-galactosidase activity,[4],cannot be achieved
